# Experimental data from patent publication US20240174647A1 (NEURON23, INC., priority 2022, published 2024).
# Target: wt human LRRK2, catalytic site (Homo sapiens (Human), UniProt Q5S007)
# Experiment: TR-FRET LanthaScreen Tb Kinase Activity Assay (LRRK2 kinase inhibition)
# Type: biochemical
# Conditions: 2 nM wt human LRRK2, 400 nM fluorescein-ERM (LRRKtide) peptide, 38 μM ATP, 120 minutes at room temperature
# Protocol: The compounds in Table 1 were tested for their inhibitory effect on LRRK2 kinase according to the following procedures.
# The protocol for basic TR-FRET LanthaScreen Tb Kinase Activity Assay inhibitor studies were as follows. LanthaScreen Kinase Activity Assays (ThermoFisher/USA) to evaluate inhibitors were performed by addition of 100 nL of test compound in corresponding DMSO dilutions/5 μL of kinase/fluorescein-ERM(LRRKtide) peptide mixture, 5 μL of ATP into 384 well small volume plates. After incubation for 120 minutes at room temperature, the detection reagents containing Tb-anti-pLRRKtide antibody were added to monitor phosphrylation level of peptide. Then, after 60 min minutes incubation at room temperature plates were read in Envision. Data analysis of emission ratios was according to LanthaScreen Tb Kinase Activity Assay protocol.
# Kinase and assay components were adjusted to final concentrations according to the kit protocol. For LRRK2: 2 nM wt human LRRK2, catalytic site, catalytic site (ThermoFisher/USA), 400 nM peptide, 38 μM ATP in 1× Kinase Buffer A.
# Basic protocol for TR-FRET LanthaScreen Tb Kinase Activity Assay inhibitor studies involved two steps: • Enzymatic step: Addition of 100 nL of test compound in corresponding DMSO dilutions, 5 μL of kinase/substrate mixture, 5 μL of ATP into 384 well small volume plates. Incubation for 120 minutes at room temperature. • Detection step: Addition of 10 μL EDTA & antibody, read plate after 60 minutes. Data analysis of emission ratios according to KinEASE assay protocol.
# Kinase and assay components were adjusted to final concentrations according to the kit protocol.
# In the table below, activity is provided as follows: +++=IC50 less than 50 nM; ++=IC50 between 50 nM and 200 nM; +=IC50>=200 nM
# wt human LRRK2, catalytic site, sequence (Q5S007 1879-2138): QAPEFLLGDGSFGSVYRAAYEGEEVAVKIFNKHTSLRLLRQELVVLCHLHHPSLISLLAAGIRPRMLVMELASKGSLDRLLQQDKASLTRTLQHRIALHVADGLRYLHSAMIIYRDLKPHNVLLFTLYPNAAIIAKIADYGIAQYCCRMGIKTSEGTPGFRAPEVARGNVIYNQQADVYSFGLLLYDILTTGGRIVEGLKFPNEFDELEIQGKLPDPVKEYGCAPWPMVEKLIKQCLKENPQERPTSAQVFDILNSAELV
row,Compound,IC50 [nM]
1,"CNc1nc(Nc2ccc3cn[nH]c3c2)ncc1C(F)(F)F [Example 1, N2-(1H-indazol-6-yl)-N4-methyl-5-(trifluoromethyl)pyrimidine-2,4-diamine]",< 50
2,CNc1nc(Nc2cc3[nH]ncc3cc2C)ncc1C(F)(F)F [Example 2],< 50
3,"CNc1nc(Nc2cc3[nH]ncc3cc2OC)ncc1C(F)(F)F [Example 3, N2-(5-methoxy-1H-indazol-6-yl)-N4-methyl-5-(trifluoromethyl)pyrimidine-2,4-diamine]",< 50
4,"CNc1nc(Nc2ccc3cn[nH]c3c2OC)ncc1C(F)(F)F [Example 4, N2-(7-methoxy-1H-indazol-6-yl)-N4-methyl-5-(trifluoromethyl)pyrimidine-2,4-diamine]",50 to 200
5,"CNc1nc(Nc2ccc3cn[nH]c3c2C)ncc1C(F)(F)F [Example 5, N4-methyl-N2-(7-methyl-1H-indazol-6-yl)-5-(trifluoromethyl)pyrimidine-2,4-diamine]",< 50
6,"CNc1nc(Nc2cc(F)c3cn[nH]c3c2)ncc1C(F)(F)F [Example 6, N2-(4-fluoro-1H-indazol-6-yl)-N4-methyl-5-(trifluoromethyl)pyrimidine-2,4-diamine]",< 50
7,"CNc1nc(Nc2ccc3c(Br)n[nH]c3c2)ncc1C(F)(F)F [Example 7, N2-(3-bromo-1H-indazol-6-yl)-N4-methyl-5-(trifluoromethyl)pyrimidine-2,4-diamine]",< 50
8,"CNc1nc(Nc2ccc3c(C#N)n[nH]c3c2)ncc1C(F)(F)F [Example 8, 6-((4-(methylamino)-5-(trifluoromethyl)pyrimidin-2-yl)amino)-1H-indazole-3-carbonitrile]",≥ 200
9,"CNc1nc(Nc2ccc3c(C(=O)N4CCOCC4)n[nH]c3c2)ncc1C(F)(F)F [Example 9, (6-((4-(methylamino)-5-(trifluoromethyl)pyrimidin-2-yl)amino)-1H-indazol-3-yl)(morpholino)methanone]",< 50
10,"CNc1nc(Nc2ccc3c(Br)nn(C)c3c2)ncc1C(F)(F)F [Example 10, N^2-(3-bromo-1-methyl-1H-indazol-6-yl)-N^4-methyl-5-(trifluoromethyl) pyrimidine-2,4-diamine]",< 50
11,"CNc1nc(Nc2ccc3c(C#N)nn(C)c3c2)ncc1C(F)(F)F [Example 11, 1-methyl-6-((4-(methylamino)-5-(trifluoromethyl)pyrimidin-2-yl)amino)-1H-indazole-3-carbonitrile]",< 50
12,"CNc1nc(Nc2ccc3cnn(C)c3c2)ncc1C(F)(F)F [Example 12, N4-methyl-N2-(1-methyl-1H-indazol-6-yl)-5-(trifluoromethyl)pyrimidine-2,4-diamine]",< 50
13,"CNc1nc(Nc2cc3c(cnn3C)cc2C)ncc1C(F)(F)F [Example 13, N2-(1,5-dimethyl-1H-indazol-6-yl)-N4-methyl-5-(trifluoromethyl)pyrimidine-2,4-diamine]",< 50
14,"CNc1nc(Nc2ccc3cnn(C)c3c2OC)ncc1C(F)(F)F [Example 14, N2-(7-methoxy-1-methyl-1H-indazol-6-yl)-N4-methyl-5-(trifluoromethyl)pyrimidine-2,4-diamine]",50 to 200
15,"CNc1nc(Nc2ccc3cnn(C)c3c2C)ncc1C(F)(F)F [Example 15, N2-(1,7-dimethyl-1H-indazol-6-yl)-N4-methyl-S-(trifluoromethyl)pyrimidine-2,4-diamine]",50 to 200
16,"CNc1nc(Nc2ccc3cnn(CC#N)c3c2)ncc1C(F)(F)F [Example 16, 2-(6-((4-(methylamino)-5-(trifluoromethyl)pyrimidin-2-yl)amino)-1H-indazol-1-yl)acetonitrile]",< 50
17,"CNc1nc(Nc2ccc3cn(C)nc3c2)ncc1C(F)(F)F [Example 17, N4-methyl-N2-(2-methyl-2H-indazol-6-yl)-5-(trifluoromethyl)pyrimidine-2,4-diamine]",< 50
18,"CNc1nc(Nc2cc3nn(C)cc3cc2C)ncc1C(F)(F)F [Example 18, N2-(2,5-dimethyl-2H-indazol-6-yl)-N4-methyl-5-(trifluoromethyl)pyrimidine-2,4-diamine]",50 to 200
19,"CNc1nc(Nc2ccc3cn(C)nc3c2C)ncc1C(F)(F)F [Example 19, N2-(2,7-dimethyl-2H-indazol-6-yl)-N4-methyl-5-(trifluoromethyl)pyrimidine-2,4-diamine]",< 50

row,Compound,IC50 [nM]
1,"CNc1nc(Nc2ccc3cn(C)nc3c2OC)ncc1C(F)(F)F [Example 20, N2-(7-methoxy-2-methyl-2H-indazol-6-yl)-N4-methyl-5-(trifluoromethyl)pyrimidine-2,4-diamine]",< 50
2,"CNc1nc(Nc2cccc3[nH]ncc23)ncc1C(F)(F)F [Example 21, N2-(1H-indazol-4-yl)-N4-methyl-5-(trifluoromethyl)pyrimidine-2,4-diamine]",< 50
3,"CNc1nc(Nc2c(F)ccc3[nH]ncc23)ncc1C(F)(F)F [Example 22, N2-(5-fluoro-1H-indazol-4-yl)-N4-methyl-5-(trifluoromethyl)pyrimidine-2,4-diamine]",50 to 200
4,"CNc1nc(Nc2c(C)ccc3[nH]ncc23)ncc1C(F)(F)F [Example 23, N4-methyl-N2-(5-methyl-1H-indazol-4-yl)-5-(trifluoromethyl)pyrimidine-2,4-diamine]",50 to 200
5,"CNc1nc(Nc2cc(C)cc3[nH]ncc23)ncc1C(F)(F)F [Example 24, N4-methyl-N2-(6-methyl-1H-indazol-4-yl)-5-(trifluoromethyl)pyrimidine-2,4-diamine]",< 50
6,"CNc1nc(Nc2cc(F)cc3[nH]ncc23)ncc1C(F)(F)F [Example 25, N2-(6-fluoro-1H-indazol-4-yl)-N4-methyl-5-(trifluoromethyl)pyrimidine-2,4-diamine]",< 50
7,"CNc1nc(Nc2ccc(C)c3[nH]ncc23)ncc1C(F)(F)F [Example 26, N4-methyl-N2-(7-methyl-1H-indazol-4-yl)-5-(trifluoromethyl)pyrimidine-2,4-diamine]",< 50
8,"CNc1nc(Nc2ccc(OC)c3[nH]ncc23)ncc1C(F)(F)F [Example 28, N2-(7-methoxy-1H-indazol-4-yl)-N4-methyl-5-(trifluoromethyl)pyrimidine-2,4-diamine]",< 50
9,"CNc1nc(Nc2cccc3c2cnn3C)ncc1C(F)(F)F [Example 29, N4-methyl-N2-(1-methyl-1H-indazol-4-yl)-5-(trifluoromethyl)pyrimidine-2,4-diamine]",< 50
10,"CNc1nc(Nc2cccc3c2cnn3CC#N)ncc1C(F)(F)F [Example 30, 2-(4-((4-(methylamino)-5-(trifluoromethyl)pyrimidin-2-yl)amino)-1H-indazol-1-yl)acetonitrile]",< 50
11,"CNc1nc(Nc2cccc3c2cnn3C(C)(C)C#N)ncc1C(F)(F)F [Example 31, 2-methyl-2-(4-((4-(methylamino)-5-(trifluoromethyl)pyrimidin-2-yl)amino)-1H-indazol-1-yl)propanenitrile]",< 50
12,"CNc1nc(Nc2cccc3c2cnn3C(=O)N2CCOCC2)ncc1C(F)(F)F [Example 32, (4-((4-(methylamino)-5-(trifluoromethyl)pyrimidin-2-yl)amino)-1H-indazol-1-yl)(morpholino)methanone]",< 50
13,"CNc1nc(Nc2cccc3c2cnn3S(=O)(=O)C2CC2)ncc1C(F)(F)F [Example 33, N2-(1-(cyclopropylsulfonyl)-1H-indazol-4-yl)-N4-methyl-5-(trifluoromethyl)pyrimidine-2,4-diamine]",< 50
14,"CNc1nc(Nc2cccc3nn(C)cc23)ncc1C(F)(F)F [Example 34, N4-methyl-N2-(2-methyl-2H-indazol-4-yl)-5-(trifluoromethyl)pyrimidine-2,4-diamine]",< 50
15,"CNc1nc(Nc2ccc(OC)c3nn(C)cc23)ncc1C(F)(F)F [Example 35, N2-(7-methoxy-2-methyl-2H-indazol-4-yl)-N4-methyl-5-(trifluoromethyl) pyrimidine-2,4-diamine]",< 50
16,"CNc1nc(Nc2c(C)ccc3c2cnn3C)ncc1C(F)(F)F [Example 36, N2-(1,5-dimethyl-1H-indazol-4-yl)-N4-methyl-5-(trifluoromethyl)pyrimidine-2,4-diamine]",50 to 200
17,"CNc1nc(Nc2c(OC)ccc3c2cnn3C)ncc1C(F)(F)F [Example 37, N2-(5-methoxy-1-methyl-1H-indazol-4-yl)-N4-methyl-5-(trifluoromethyl) pyrimidine-2,4-diamine]",< 50
18,"CNc1nc(Nc2c(F)ccc3c2cnn3C)ncc1C(F)(F)F [Example 38, N2-(5-fluoro-1-methyl-1H-indazol-4-yl)-N4-methyl-5-(trifluoromethyl) pyrimidine-2,4-diamine]",50 to 200
19,"CNc1nc(Nc2c(C)ccc3nn(C)cc23)ncc1C(F)(F)F [Example 39, N2-(2,5-dimethyl-2H-indazol-4-yl)-N4-methyl-5-(trifluoromethyl)pyrimidine-2,4-diamine]",≥ 200
